Experimental data taken from patent publication US20110159603A1, “FLUORESCENT PROBE SPECIFIC TO HYDROGEN PEROXIDE” (THE UNIVERSITY OF TOKYO, priority 2008, published 2011).

Key:
[1] = test system: RAW264.7 cells; assay: Detection of hydrogen peroxide in live cells by fluorescence microscopy; assay type: cell-based; details: RAW264.7 cells stimulated with LPS 50 μg/ml and IFN-γ 100 unit/ml for 12 hours vs non-stimulated; observed 2 hours after loading; excitation 470 to 495 nm, fluorescence 510 to 550 nm
Protocol: It was confirmed that Compound 5 was also usable for detection of hydrogen peroxide in live cells. The RAW264.7 cells were stimulated with a lipopolysaccharide (LPS, 50 μg/ml) and interferon-γ (IFN-γ, 100 unit/ml) for 12 hours, then a diacetylated compound of Compound 5 was loaded on the cells, and 2 hours later, the cells were observed under a fluorescence microscope using the U-MNIBA2 filter set produced by Olympus Corporation (excitation wavelength: 470 to 495 nm, fluorescence wavelength: 510 to 550 nm) (FIG. 2).

[2] = Relative fluorescence intensity at 520 nm on adding other reactive oxygen species; details: hydroxyl radical 10 μM, peroxynitrite 10 μM, hypochlorite ion 10 μM, NOC13 100 μM or EP-1 100 μM; compound 1 μM; excitation 490 nm
Protocol: (§1) The addition of hydroxyl radical (10 μM) to the test system was performed by the method of adding hydrogen peroxide (10 μM) to a solution of Compound 5, and then immediately adding a solution of iron(II) perchlorate (10 μM) in purified water to the mixture to generate hydroxyl radicals by the Fenton reaction.

[3] = Relative fluorescence intensity with superoxide from hypoxanthine/xanthine oxidase (HPX/x.o.) system; details: compound 10 μM
[4] = Fluorescence spectrum change on adding hydrogen peroxide; details: excitation 490 nm
Protocol: [The source words this procedure for another target and reports this target under the same test.] as §1

N#Cc1ccc(C(=O)C(=O)c2ccc(-c3c4ccc(=O)cc-4oc4cc(O)ccc34)c(C(=O)O)c2)cc1 [Compound 5, 5-(4-cyanobenzoyl)carbonylfluorescein]
fluorescence intensity in cells [1]: higher when loading Compound 5 on the stimulated cells (B) than on the non-stimulated cells (A) | relative fluorescence intensity at 520 nm [2]: no increase of fluorescence intensity | relative fluorescence intensity at 520 nm ([3]; HPX/x.o. system with SOD 60 Unit/L added): no significant change in the degree of the increase of fluorescence intensity | relative fluorescence intensity at 520 nm ([3]; HPX/x.o. system with catalase 100 Unit/L added): reduced to around the level of the control | relative fluorescence intensity at 520 nm ([3]; superoxide 10 μM, HPX/x.o. system (x.o. 2.38 mUnit/L, HPX 10 μM), versus control): higher in the case using the HPX/x.o. system than in the case of the control | change of the fluorescence spectrum over time ([4]; hydrogen peroxide 100 μM added to compound 1 μM, after 5, 15, 30 and 60 minutes): increase of fluorescence intensity was observed over time | relative fluorescence intensity at 520 nm ([4]; hydrogen peroxide 100 μM for 30 minutes, compound 1 μM): increase of fluorescence intensity was observed only when hydrogen peroxide was added
